Several values for one entry are separate records, joined by “and”; a condition that tells them apart may be missing. Equal entries are not always repeated. Where two headings read alike, the source gives them in different places.
Key:
[1] = biological target: TRKA (Homo sapiens, UniProt P04629); test: TRKA kinase assay; format: biochemical; design: 6×His- or GST-tagged kinase domain fragments of the corresponding RTKs expressed in baculovirus system; host or cells: baculovirus system; conditions: Table 1; read-out: TRKA IC50
[2] = biological target: T1, IRK (Homo sapiens, UniProt P06213); test: IRK (insulin receptor kinase) assay; format: biochemical; conditions: Table 1; read-out: IRK IC50
T1 construct: 6×His- or GST-tagged kinase domain fragments of the corresponding RTKs expressed in baculovirus system; host or cells: baculovirus system
Experimental: To determine inhibition of several tyrosine kinases, such as IGF1R, InsR, Alk, TrkA and Jak2, kinase assays are conducted using either Kinase-Glo (Promega) or AlphaScreen (PerkinElmer) kinase assay platforms. The Kinase-Glo Luminescent Kinase Assay is a homogeneous method for measuring kinase activity by determining the amount of ATP remaining after a kinase reaction. The luminescent signal is proportional to the amount of ATP and inversely proportional to the amount of kinase activity. Tyrosine kinase PT66 AlphaScreen Assay is a high-sensitivity homogeneous, anti-phosphotyrosine antibody-mediated luminescent proximity method measuring incorporation of phosphate in synthetic poly(Glu-Tyr) substrate. The kinase preparations used consist of purified recombinant, 6×His- or GST-tagged kinase domain fragments of the corresponding RTKs expressed in baculovirus system.
Compounds with a range of concentrations 40 μM, 20 μM, 10 μM, 5 μM, 2.5 μM, 1.25 μM, 0.625 μM, 0.3125 μM, 0.15625 μM and 0.078125 μM were incubated with NPM-ALK, which was produced in insect cells as a 6×HIS-tagged fusion protein and purified using nickel-charged resin chromatography, for 30 minutes at RT in the presence of 10 μM ATP and 7.0 ng biotinylated poly-GT. A 1:1 mixture of […] and donor beads was then added to the reaction and incubated for an additional 60 minutes at RT. The assay was conducted on a MultiPROBE liquid handling workstation (PerkinElmer) in a 384-well plate format with a total reaction volume of 40 μL per well. Working stocks of all compounds were dissolved in 100% DMSO and serial dilutions of the compounds were performed using kinase buffer (50 mM Tris-HCl (pH 7.5), 5 mM MgCl2, 5 mM MnCl2, 2 mM DTT (added freshly before use), 0.01% Tween-20) containing 5% DMSO. […] Data were collected as optical readings at 520-680 nm on a Fusion™ microplate analyzer (PerkinElmer), and IC50 and Ki values calculated using PRISM3.0 software (GraphPad Software, Inc., San Diego, Calif.). The same assay was also used with minor modifications to assess the IC50 and Ki values for selected compounds against five other tyrosine kinases (IRK, IGF1R, Flt3, Abl, Src), all of which were purchased from commercial vendors. PolyGT-Biotin was bought from CIS Biointernational Cat. #61GT0BLD; ATP—from Sigma Cat. # A7699; sodium orthovanadate—from Sigma Cat. #S-6508; phosphotyrosine (PT66) assay kit from PerkinElmer Cat. #6760602M; automated workstation tips (20 μL): PerkinElmer Cat. #6000657; and OptiPlate-384 (white)—from PerkinElmer Cat. #6007299.

[3] = biological target: ALK (Homo sapiens, UniProt Q9UM73); test: ALK kinase assay (Kinase-Glo / AlphaScreen, purified NPM-ALK); format: biochemical; design: fused to the complete intracytoplasmic portion of ALK containing the functional tyrosine kinase domain; 6xHis; made in house; host or cells: insect cells; the other entry of the earlier key: NPM1 (P06748, Nucleophosmin)
[4] = biological target: T2, IGF1R (Homo sapiens, UniProt P08069); test: IGF1R kinase assay; format: biochemical
T2 construct: 6×His- or GST-tagged kinase domain fragments of the corresponding RTKs expressed in baculovirus system; host or cells: baculovirus system
In short: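 The AlphaScreen PT66 format of the NPM-ALK assay was applied with minor modifications to commercial recombinant His/GST-tagged kinase domains. Compound (0.078125–40 μM) was incubated 30 min at RT with 10 μM ATP and biotinylated poly-GT in Tris pH 7.5/MgCl2/MnCl2/DTT buffer, then beads 60 min. Read at 520–680 nm; IC50 and Ki derived.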

[5] = Plasma Protein Binding (Human), equilibrium dialysis; format: in vitro ADME; conditions: 1.0E−05 M; for % Protein Bound, Mean: equilibrium dialysis; for % Protein Bound, 1st/2nd: individual data
[6] = tested on: Karpas299; test: Cell proliferation inhibition, ALCL line Karpas299; format: cell-based; conditions: Homo sapiens, KARPAS-299; Table 2, cell line; read-out: IC50 ALCL (ALK) Karpas299
Text: The IL-3-dependent lymphoid cell line BaF3 or BaF3 rendered IL-3-independent by engineered expression of NPM-ALK were used in parallel to test each candidate inhibitor. Control wells contained DMSO solvent without test compound. Specific inhibition of ALK signaling is indicated in the assay by impairment of NPM-ALK-expressing BaF3 cell growth without alterations in the growth of parental BaF3. This colorimetric assay of cell proliferation and viability is based upon reduction of the yellow monotetrazolium salt XTT to a water-soluble orange formazan dye, a reaction catalyzed by mitochondrial dehydrogenases in living cells only (Cell Proliferation Kit II, Cat. #1 465 015, Roche Biochemicals). In addition to testing compounds for their ability to impair the growth of BaF3 cells engineered to express NPM-ALK, the NPM-ALK-positive human lymphoma cell line Karpas-299 (Deutsche Sammlung von Mikroorganismen and Zellkulturen GmbH (DSMZ) no. ACC 31), the human BCR-ABL-positive chronic myeloid leukemia cell line K562 (American Type Culture Collection (ATCC) no. CCL-243), and the human T-cell leukemia line Jurkat (DSMZ no. ACC 282) were tested in these assays.
Each compound stock in 100% DMSO was first diluted using 8% DMSO/culture medium to produce a working stock of 250 μM compound. This working stock was then used to perform serial 1:1 dilutions (i.e., 125 μM, 62.5 μM, 31.25 μM, 15.625 μM, 7.8125 μM, and 3.90625 μM) using DMSO-free culture medium. Twenty (20) μL of each of these dilutions was then added to the cells (2×10^4 cells in 80 μL culture medium per 96-well) to obtain the final test compound concentrations (i.e., 25 μM, 12.5 μM, 6.25 μM, 3.125 μM, 1.5625 μM, and 0.78125 μM).
(§1) Cell proliferation inhibition assays were run for compound (II) with the five target NPM-ALK-dependent ALCL cell lines (Karpas 299, SuDHL-1, JB6, SupM2, UConn) and 12 unrelated cell lines (HEK293, CHO-K1, MCF7, HepG2, H292, H520, H1581, H596, H522, CHA-GO-K1, UMC-11, SK-MES1). […] The pronounced target cell-killing effect is also observed (molecular mechanisms to be determined).

[7] = tested on: JB6; test: Cell proliferation inhibition, ALCL line JB6; format: cell-based; conditions: Table 2, cell line, read-out: IC50 ALCL (ALK) JB6
Text: as §1

[8] = tested on: H929; test: Cell line IC50, MM (IGF1R) H929; format: cell-based; conditions: Homo sapiens, NCI-H929; Table 2, cell line
[9] = tested on: WI38; test: Cell line IC50, control WI38; format: cell-based; conditions: Homo sapiens, WI-38; Table 2, cell line
[10] = tested on: UConn; test: Cell proliferation inhibition, ALCL line UConn; format: cell-based; conditions: Table 2, cell line; read-out: IC50 ALCL (ALK) Uconn
Text: as §1

[11] = Table 2, read-out: Enzymatic ALK IC50
[12] = Table 2, read-out: Enzymatic IGF1R IC50

T2 sequence (P08069 999-1274 limits assumed): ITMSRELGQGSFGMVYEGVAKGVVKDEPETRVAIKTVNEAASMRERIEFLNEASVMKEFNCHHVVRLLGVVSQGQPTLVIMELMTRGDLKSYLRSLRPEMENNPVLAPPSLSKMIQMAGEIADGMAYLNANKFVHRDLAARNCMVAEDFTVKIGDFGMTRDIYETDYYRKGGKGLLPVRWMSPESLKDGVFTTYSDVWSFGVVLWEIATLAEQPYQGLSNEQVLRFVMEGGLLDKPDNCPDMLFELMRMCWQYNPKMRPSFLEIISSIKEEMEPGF
Chain of TRKA (P04629 510-781 limits assumed): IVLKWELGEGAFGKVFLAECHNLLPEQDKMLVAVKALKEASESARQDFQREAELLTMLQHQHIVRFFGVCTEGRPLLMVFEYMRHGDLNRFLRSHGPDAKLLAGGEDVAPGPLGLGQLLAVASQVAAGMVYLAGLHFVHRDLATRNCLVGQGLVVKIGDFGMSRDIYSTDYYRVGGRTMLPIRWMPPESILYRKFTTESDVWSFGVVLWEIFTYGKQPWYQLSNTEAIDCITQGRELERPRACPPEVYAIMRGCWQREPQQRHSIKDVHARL
T1 sequence (P06213 1023-1298 limits assumed): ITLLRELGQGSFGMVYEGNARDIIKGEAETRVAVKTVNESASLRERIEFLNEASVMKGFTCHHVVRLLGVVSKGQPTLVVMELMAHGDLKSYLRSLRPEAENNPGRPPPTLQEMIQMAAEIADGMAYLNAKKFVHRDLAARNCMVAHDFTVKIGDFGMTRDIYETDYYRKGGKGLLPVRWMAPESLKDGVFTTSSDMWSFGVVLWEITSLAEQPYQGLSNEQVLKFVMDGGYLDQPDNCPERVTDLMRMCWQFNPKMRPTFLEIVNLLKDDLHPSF
Chain of ALK (Q9UM73 with tags, fused parts or gaps): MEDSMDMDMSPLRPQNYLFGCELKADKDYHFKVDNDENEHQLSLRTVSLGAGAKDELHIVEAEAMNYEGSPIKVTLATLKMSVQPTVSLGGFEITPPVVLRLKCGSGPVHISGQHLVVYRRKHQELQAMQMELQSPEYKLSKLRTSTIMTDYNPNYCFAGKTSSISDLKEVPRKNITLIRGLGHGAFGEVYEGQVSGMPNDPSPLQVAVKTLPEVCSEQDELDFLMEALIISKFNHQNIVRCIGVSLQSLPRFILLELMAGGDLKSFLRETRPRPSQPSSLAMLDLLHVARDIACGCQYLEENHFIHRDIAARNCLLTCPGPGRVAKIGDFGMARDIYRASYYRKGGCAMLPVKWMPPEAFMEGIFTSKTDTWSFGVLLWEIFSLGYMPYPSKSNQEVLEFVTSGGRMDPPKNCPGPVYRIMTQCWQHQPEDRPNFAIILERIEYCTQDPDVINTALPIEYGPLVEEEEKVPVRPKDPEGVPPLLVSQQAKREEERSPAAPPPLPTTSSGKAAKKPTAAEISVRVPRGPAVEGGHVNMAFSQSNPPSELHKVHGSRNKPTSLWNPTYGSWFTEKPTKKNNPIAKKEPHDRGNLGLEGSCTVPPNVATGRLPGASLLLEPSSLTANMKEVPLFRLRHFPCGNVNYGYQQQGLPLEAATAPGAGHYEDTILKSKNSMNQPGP

Structure (SMILES)	IC50 [1] [µM]	IC50 [2] [µM]	IC50 ([3]; Table 1, read-out: ALK IC50) [µM]	IC50 ([4]; Table 1, read-out: IGF1R IC50) [µM]	% Protein Bound, Mean [5] [%]	% Protein Bound, 1st/2nd [5]	IC50 [6] [µM]	IC50 [8] [µM]	IC50 [3, 11] [µM]	IC50 [4, 12] [µM]	IC50 [7] [µM]	IC50 [9] [µM]	IC50 [10] [µM]
Cc1cccc(C)c1C[C@H](C)Nc1cc[nH]c(=O)c1-c1nc2cc3c(cc2[nH]1)C(=O)N(CCN1CCCC1)C3	< 0.01	> 1	0.01 to 0.1	> 1	–	–	–	–	–	–	–	–	–
Cc1c(F)cccc1C[C@H](C)Nc1cc[nH]c(=O)c1-c1nc2cc3c(cc2[nH]1)C(=O)N(CCN1CCCC1)C3	< 0.01	0.1 to 0.25	0.01 to 0.1	0.25 to 1	–	–	–	–	–	–	–	–	–
CCCC(=O)Nc1ccc(OCC(O)CNC(C)C)c(C(C)=O)c1 (centres unmarked) [Acebutolol]	–	–	–	–	19.2	21.4% and 16.9%	–	–	–	–	–	–	–
Cc1ccc(F)cc1C[C@H](C)Nc1cc[nH]c(=O)c1-c1nc2cc3c(cc2[nH]1)C(=O)N(CCN1CCCC1)C3 [drawing 303]	< 0.01	0.1 to 0.25	< 0.01	0.1 to 0.25	–	–	–	–	–	–	–	–	–
Cc1ccc(F)cc1C[C@H](C)Nc1cc[nH]c(=O)c1-c1nc2cc3c(cc2[nH]1)C(=O)N(CCN1CCCC1)C3 [drawing 350]	–	–	–	–	–	–	< 0.01	0.25 to 1	< 0.01	0.1 to 0.25	< 0.01	> 1	0.01 to 0.1
Cc1ccc(F)cc1C[C@H](C)Nc1cc[nH]c(=O)c1-c1nc2c(C)c3c(cc2[nH]1)CN(CCN1CCCC1)C3=O [drawing 351]	–	–	–	–	–	–	< 0.01	0.25 to 1	< 0.01	0.1 to 0.25	< 0.01	> 1	0.01 to 0.1
C[C@@H](Cc1c(F)c(F)cc(F)c1F)Nc1cc[nH]c(=O)c1-c1nc2cc3c(cc2[nH]1)CN(CCN1CCCC1)C3=O [drawing 352]	–	–	–	–	–	–	< 0.01	0.25 to 1	< 0.01	> 1	< 0.01	> 1	0.01 to 0.1
C[C@@H]1CCCN1CCN1Cc2cc3[nH]c(-c4c(N[C@@H](C)Cc5cc(F)cc(F)c5F)cc[nH]c4=O)nc3cc2C1=O [drawing 353]	–	–	–	–	–	–	< 0.01	0.25 to 1	< 0.01	> 1	< 0.01	> 1	0.01 to 0.1
Cc1ccc(F)cc1C[C@H](C)Nc1cc[nH]c(=O)c1-c1nc2cc3c(cc2[nH]1)CN(CCN1CCC[C@H]1C)C3=O [drawing 354]	–	–	–	–	–	–	0.01 to 0.1	0.25 to 1	0.01 to 0.1	> 1	0.01 to 0.1	> 1	0.01 to 0.1
C[C@@H](Cc1cc(F)cc(F)c1F)Nc1cc[nH]c(=O)c1-c1nc2cc3c(cc2[nH]1)CN(CCN(C)C)C3=O [drawing 356]	–	–	–	–	–	–	0.01 to 0.1	0.25 to 1	< 0.01	0.1 to 0.25	0.01 to 0.1	> 1	0.01 to 0.1
C[C@@H](Cc1cc(F)cc(F)c1F)Nc1cc[nH]c(=O)c1-c1nc2cc3c(cc2[nH]1)CN(CCN1CCCC1)C3=O [drawing 358]	–	–	–	–	–	–	0.01 to 0.1	0.25 to 1	0.01 to 0.1	0.25 to 1	0.01 to 0.1	> 1	0.01 to 0.1
C[C@@H](Cc1cc(F)ccc1Br)Nc1cc[nH]c(=O)c1-c1nc2cc3c(cc2[nH]1)CN(CCN1CCCC1)C3=O [drawing 359]	–	–	–	–	–	–	0.01 to 0.1	0.25 to 1	0.01 to 0.1	0.25 to 1	0.01 to 0.1	> 1	0.1 to 0.25

Continued, in another order:

IC50 [1] [µM]	IC50 [2] [µM]	IC50 ([3]; Table 1, read-out: ALK IC50) [µM]	IC50 ([4]; Table 1, read-out: IGF1R IC50) [µM]	% Protein Bound, Mean [5] [%]	% Protein Bound, 1st/2nd [5]	IC50 [6] [µM]	IC50 [8] [µM]	IC50 [3, 11] [µM]	IC50 [4, 12] [µM]	Structure (SMILES)	IC50 [7] [µM]	IC50 [9] [µM]	IC50 [10] [µM]
0.1 to 0.25	> 1	> 1	0.25 to 1	–	–	–	–	–	–	O=C1NC(=O)c2cc3[nH]c(-c4c(NC[C@@H](O)c5cccc(Cl)c5)cc[nH]c4=O)nc3cc21	–	–	–
0.01 to 0.1	0.1 to 0.25	0.01 to 0.1	0.01 to 0.1	–	–	–	–	–	–	O=C1c2cc3nc(-c4c(NC[C@@H](O)c5cccc(Cl)c5)cc[nH]c4=O)[nH]c3cc2C(=O)N1CCN1CCCC1	–	–	–
–	–	–	–	99.2	99.2%	–	–	–	–	CC(=O)CC(c1ccccc1)c1c(O)c2ccccc2oc1=O (centres unmarked) [Warfarin]	–	–	–
< 0.01	0.1 to 0.25	< 0.01	0.1 to 0.25	–	–	–	–	–	–	Cc1ccc(F)cc1C[C@H](C)Nc1cc[nH]c(=O)c1-c1nc2cc3c(cc2[nH]1)CN(CCN(C)C)C3=O [drawing 316]	–	–	–
–	–	–	–	–	–	0.01 to 0.1	0.25 to 1	< 0.01	0.01 to 0.1	CNCCN1Cc2cc3[nH]c(-c4c(N[C@@H](C)Cc5cc(F)ccc5C)cc[nH]c4=O)nc3cc2C1=O [drawing 355]	< 0.01	> 1	0.01 to 0.1
–	–	–	–	–	–	0.01 to 0.1	0.25 to 1	< 0.01	0.1 to 0.25	Cc1ccc(F)cc1C[C@H](C)Nc1cc[nH]c(=O)c1-c1nc2cc3c(cc2[nH]1)CN(CCN(C)C)C3=O [drawing 357]	0.01 to 0.1	> 1	0.01 to 0.1
